Source: article PMC4138103 (PLoS ONE, 2014)
Like-named read-outs stand apart in the source and are kept apart here.

How the values were obtained:
human TTR [1] = molecular target: T1, human TTR (Homo sapiens, UniProt P02766); experiment: Competition with [125I]-T4 for binding to transthyretin; settings: for Relative potency (REP), Exp 1 / Relative potency (REP), Exp 2 / Relative potency (REP), Mean: TTR binding relative to T4; for IC50: TTR binding, [125I]-T4 competition
T1 construct: purchased Sigma Aldrich
Method: Full dose-response curves within the range of 1–100 nM were determined for each OH-PCB metabolite.

human TTR [2] = molecular target: T1, human TTR; experiment: as above; settings: @100 nM
HepG2 cells = tested on: HepG2 cells; parameters: method as in Al-Anati et al., in preparation; settings: ref Al-Anati et al., in preparation; cited from earlier work
rats = tested on: rats; parameters: method as in PMID 8935785; settings: dietary exposure 90 days; cited from earlier work
[3] = read-out: IC50, Full dose-resonse experiments, Exp 1
[4] = read-out: IC50, Full dose-resonse experiments, Exp 2

Row | Compound | Relative potency (REP), Exp 1 (human TTR [1]) | Relative potency (REP), Exp 2 (human TTR [1]) | Relative potency (REP), Mean (human TTR [1]) | IC50 (human TTR [1]; n = 2, read-out: IC50, Mean) [nM] | IC50 (human TTR [1]; [3]) [nM] | IC50 (human TTR [1]; [4]) [nM] | T4 displacement, Pilot experiment (human TTR [2]) [% T4 displacement @100 nM] | Expression of DNA damage markers pChk1Ser317 and γH2AXSer319 (HepG2 cells) | NOAEL (rats) [mg/kg diet] | NOAEL, equivalent daily dose (rats) [µg/kg bw/day] | NOAEL, equivalent total dose (rats) [mg/kg bw]
1 | Oc1c(Cl)cc(-c2cc(Cl)c(Cl)c(Cl)c2Cl)c(Cl)c1Cl [4'-OH-PCB 172] | 5.37 | 3.90 | 4.64 | 13 | 11.9 | 14.1 | 95 | – | – | – | –
2 | Oc1c(Cl)c(Cl)c(Cl)c(-c2cc(Cl)c(Cl)cc2Cl)c1Cl [5-OH-PCB 183] | 3.54 | 2.61 | 3.08 | 19.6 | 18.1 | 21.1 | 92 | – | – | – | –
3 | Oc1c(Cl)c(Cl)cc(-c2cc(Cl)c(Cl)c(Cl)c2Cl)c1Cl [3'-OH-PCB 180] | 3.96 | 2.84 | 3.40 | 17.8 | 16.2 | 19.4 | 95 | induced | – | – | –
4 | Clc1cc(Cl)c(-c2cc(Cl)c(Cl)cc2Cl)cc1Cl [PCB 153, 2,2′,4,4′,5,5′-hexachlorobiphenyl] | – | – | – | – | – | – | – | – | 0.5 | 34 | 3.1
5 | Oc1c(Cl)cc(Cl)c(-c2cc(Cl)c(Cl)c(Cl)c2Cl)c1Cl [3' OH-PCB 182] | 3.68 | 2.68 | 3.18 | 19 | 17.4 | 20.5 | 93 | – | – | – | –
